Test results taken from PMC4648528, “Interplay between Structure and Charge as a Key to Allosteric Modulation of Human 20S Proteasome by the Basic Fragment of HIV-1 Tat Protein” (PLoS ONE, 2015).
Like-named read-outs stand apart in the source and are kept apart here. Square brackets hold non-standard residues; d marks the D form. Ends that are not written are not given here. Peptide text beside a SMILES is read from it. Oic = O=C(O)[C@@H]1C[C@@H]2CCCC[C@@H]2N1; dOic = O=C(O)[C@H]1C[C@H]2CCCC[C@H]2N1; Tic = O=C(O)[C@@H]1Cc2ccccc2CN1; dTic = O=C(O)[C@H]1Cc2ccccc2CN1

Experiments:
[1] = target: T1, human 20S proteasome; test: ChT-L peptidase activity of SDS-activated human 20S proteasome (SucLLVY-MCA); type: biochemical
T1 construct: isolated from human erythrocytes (Enzo Life Sciences); purchased Enzo Life Sciences; host or cells: human erythrocytes
Procedure: Influence of the designed peptides on catalytic properties of the 20S proteasome was tested using the proteasome at a final concentration of 1.5 nM, isolated from human erythrocytes (Enzo Life Sciences) and activated with 0.01% sodium dodecyl sulfate. Succinyl-Leu-Leu-Val-Tyr-4-methylcoumarin-7-amide (SucLLVY-MCA) was employed as a model fluorogenic substrate to determine the activity of ChT-L peptidase. All assays were performed in the 96-well plate format using a reaction volume of 100 uL. Tests were carried out in 50 mM Tris/HCl, pH 8.0 containing 0.5 mM ethylenediamine tetraacetic acid. Stock solutions of the substrates and the tested peptides were prepared by dissolution of the lyophilized compounds in dimethyl sulfoxide (DMSO). The content of DMSO never exceeded 3% of the final reaction volume. Compounds were tested in the concentration range of 0.05–10 μM. The substrate was added at 100 μM final concentration (1% of the volume). The release of an aminomethyl coumarin (AMC) group was followed by measuring fluorescence emission at 460 nm in 2 min. intervals for up to 60 min. at 37°C (Fluoroskan Ascent). The peptidolytic activity was calculated as nanomoles of the released AMC product per mg of CP per second. The half maximal inhibitory concentration expressed in μM concentration was calculated with SigmaPlot 12.3 where exponential equation estimates based on fitting of two or three logistic parameters were employed.

[2] = target: T1, human 20S proteasome; test: Microscale thermophoresis with fluorescently labeled human 20S proteasome; type: binding; settings: for Kd: MST; for EC50: MST Hill fit, concentrations listed in nM, read-out: EC50, fitted value (Hill method)
Source text: Microscale thermophoresis detects changes in the mobility of protein molecules in temperature gradients generated by IR laser radiation. The thermophoretic effect is very sensitive to induced by a ligand binding alterations in the charge, size and/or the hydration shell of a studied protein [39]. Quantification of these changes is based on either intrinsic fluorophores such as tryptophan or covalently bound dyes. Titration of the selected peptides/peptidomimetics to a constant concentration of the fluorescently labeled human 20S proteasome allowed us to determine ligand dissociation constants (Kd), and systematically compare their binding affinity.
The human 20S proteasome was labeled using monolith NT^TM Protein Labeling Kit RED-NHS (NanoTemper Technologies), according to the protocol provided by the supplier. During the measurements concentration of the labeled protein was kept constant at 3 nM. […] The binding reactions were carried out in 50 mM Tris/HCl buffer containing 0.5 mM EDTA, pH 8.0 with an addition of sodium dodecyl sulfate at the final concentration of 0.005%. Measurements were performed in standard treated capillaries on a Monolith NT.115 system (NanoTemper Technologies). Capillaries were illuminated at 25°C with 80% LED power for 5 s. […] Fluorescence intensities were measured at 6–8 s and 34–36 s, and fluorescence intensity ratios of hot/cold were used as the assay readout. Kd values were determined using the internal evaluation software.

[3] = tested on: T1, human 20S proteasome; test: Peptide degradation test with 20S proteasome (RP-HPLC); type: in vitro ADME
Procedure: Susceptibility of the designed modulators to degradation by the 20S proteasome was examined by reversed-phase high-performance liquid chromatography (S10 Fig). The compounds were dissolved in water or DMSO to 10 mM concentration and then diluted with 25 mM Tris buffer containing 0.25 mM EDTA (pH 8.0) to the final concentration of 1 mM. 2.5 μg of human 20S proteasome (Enzo Life Sciences) was added to the mixture, which then, after adjustment of its final volume to 100 μl, was incubated at 37°C for 3 h. The reaction was stopped by adding 5 μl of 10% aqueous trifluoroacetic acid. Next, 40 μl of the mixture, along with the control not containing the 20S, were injected onto C8 Kromasil column (4,6 x 250 mm, 100 Å, 5 μm). […]
incubation with the proteasome under standard conditions used in our tests. For comparison we also included the degradation profile of Tat1_A4-5,8-9, which was not able to inhibit the proteasome […]
(1 picture or pasted object on this page, not shown here)

[4] = target: 20S proteasome; settings: cited from earlier work
Source text: Intriguingly, we first identified the importance of structural dynamics of this peptide, when we compared the FTIR spectra collected in liquid and films. […] The best studied and shortest 11-residue PR11 may contain a structural turn and is hypothesized to bind at the outer edge of the proteasomal α ring. Another example is octa-arginine, inhibiting the proteasome peptidase activity in vitro with high- ...

[5] = ChT-L activity, average of repetitions, read-out: Calculated IC50, Average
[6] = ChT-L peptidase, 1.5 nM 20S from human erythrocytes activated with 0.01% SDS, 100 μM SucLLVY-MCA, 50 mM Tris/HCl pH 8.0, 0.5 mM EDTA, 37°C, mean (±SD), read-out: IC50
[7] = average of three repetitions, read-out: Kd, Average
[8] = ChT-L activity, Repetition 1, read-out: Calculated IC50

| Compound | IC50 [1, 5] [µM] | IC50 [1, 6] [µM] | also measured |
| --- | --- | --- | --- |
| GRAAAAQRRRPS [Tat1_A3-6] | 4.24 | 4.24 | – |
| GRKKAAQRRRPS [Tat1_A5-6] | 0.321 | 0.32 | – |
| N=C(N)NCCC[C@H](NC(=O)CN)C(=O)N[C@@H](CCCCN)C(=O)N1Cc2ccccc2C[C@@H]1C(=O)N1[C@H](C(=O)N[C@@H](CCCNC(=N)N)C(=O)N[C@@H](CCC(N)=O)C(=O)N2Cc3ccccc3C[C@H]2C(=O)N2[C@@H](C(=O)N[C@@H](CCCNC(=N)N)C(=O)N3CCC[C@H]3C(=O)N[C@@H](CO)C(=O)O)C[C@H]3CCCC[C@H]32)C[C@@H]2CCCC[C@@H]21 [Tat1_4-5TO,8-9TOD] (H-GRK[dTic][Oic]RQ[Tic][dOic]RPS-OH) | 0.245 | 0.24 | Kd ([2]; read-out: Dissociation constants Kd calculated on the basis of the thermophoresis curves, 3 nM labeled 20S, 50 mM Tris/HCl, 0.5 mM EDTA pH 8.0, 0.005% SDS, 25°C, mean (±SD)): 8.38 µM |
| N=C(N)NCCC[C@H](NC(=O)CN)C(=O)N[C@@H](CCCCN)C(=O)N[C@@H](CCCCN)C(=O)N[C@@H](CCCNC(=N)N)C(=O)N[C@@H](CCCNC(=N)N)C(=O)N[C@@H](CCC(N)=O)C(=O)N[C@@H](CCCNC(=N)N)C(=O)N[C@@H](CCCNC(=N)N)C(=O)N[C@@H](CCCNC(=N)N)C(=O)N1CCC[C@H]1C(=O)N[C@@H](CO)C(=O)O [Tat1] | – | – | Degradation by the 20S proteasome ([3]; 1 mM peptide, 2.5 μg human 20S proteasome in 100 μl, 25 mM Tris, 0.25 mM EDTA pH 8.0, 37°C, 3 h, RP-HPLC C8, UV 223 nm, against control without 20S): No significant degradation |
| GRKAAAQRRRPS [Tat1_A4-6] | 1.72 | 1.72 | EC50 ([2]; Repetition 1): 12800 ± 0.155 nM; EC50 ([2]; Repetition 2): 10600 ± 0.0436 nM; EC50 ([2]; Repetition 3): 12000 ± 0.084 nM; Kd ([2]; Repetition2, read-out: Kd): 10.6 µM; Kd [2, 7]: 12.1 µM |
| GRKAARQAARPS [Tat1_A4-5,8–9] | – | 4.66 | IC50 [1, 8]: 4.89 µM; IC50 ([1]; ChT-L activity, Repetition 2, read-out: Calculated IC50): 3.47 µM; IC50 ([1]; ChT-L activity, Repetition 3, read-out: Calculated IC50): 4.43 µM; Degradation by the 20S proteasome ([3]; pH 8): partially degraded by the proteasome |
| GRAARRQRRRPS [Tat1_A3-4] | 0.245 | 0.24 | – |
| GRKKARAAARPS [Tat1_A5,7–9] | 1.53 | 1.53 | – |
| N=C(N)NCCC[C@H](NC(=O)CN)C(=O)N[C@@H](CCCCN)C(=O)N1Cc2ccccc2C[C@@H]1C(=O)N1[C@H](C(=O)N[C@@H](CCCNC(=N)N)C(=O)N[C@@H](CCC(N)=O)C(=O)N[C@@H](CCCNC(=N)N)C(=O)N[C@@H](CCCNC(=N)N)C(=O)N[C@@H](CCCNC(=N)N)C(=O)N2CCC[C@H]2C(=O)N[C@@H](CO)C(=O)O)C[C@@H]2CCCC[C@@H]21 [Tat1_4-5TO] (HELM PEPTIDE1{G.R.K.[O=C([C@H]1Cc2ccccc2CN1[*:1])[*:2]].[O=C([C@@H]1C[C@@H]2CCCC[C@@H]2N1[*:1])[*:2]].R.Q.R.R.R.P.S}$$$$V2.0) | 0.239 | 0.24 | EC50 ([2]; Repetition 1): 8730 ± 0.0212 nM; EC50 ([2]; Repetition 2): 9260 ± 0.0182 nM; EC50 ([2]; Repetition 3): 8730 ± 0.0265 nM; Kd [2, 7]: 8.91 µM |
| GRAAARQRRRPS [Tat1_A3-5] | 1.57 | 1.57 | – |
| GRKKAAARRRPS [Tat1_A5-7] | 0.315 | 0.31 | – |
| GRKAARQRRRPS [Tat1_A4-5] | 0.264 | 0.26 | – |
| GRKKRRAAARPS [Tat1_A7-9] | 0.281 | 0.28 | – |
| octa-arginine | – | – | IC50, proteasome peptidase activity in vitro [4]: high-nanomolar |
| GRKKRRQAAAPS [Tat1_A8-10] | 2.52 | 2.52 | IC50 [1, 8]: 1.99 µM; EC50 ([2]; Repetition 1): 13800 ± 0.227 nM; EC50 ([2]; Repetition 2): 12800 ± 0.251 nM; EC50 ([2]; Repetition 3): 13800 ± 0.218 nM; Kd [2, 7]: 13.5 µM |
| GRKKRRAAAAPS [Tat1_A7-10] | 2.79 | 2.79 | – |
| GAAARRQRRRPS [Tat1_A2-4] | – | 0.45 | Increase of IC50 relative to Tat1 ([1]; ChT-L activity of SDS activated 20S proteasome): about two times higher |
| N=C(N)NCCC[C@H](NC(=O)CN)C(=O)N[C@@H](CCCCN)C(=O)N[C@@H](CCCCN)C(=O)N[C@@H](CCCNC(=N)N)C(=O)N[C@@H](CCCNC(=N)N)C(=O)N[C@@H](CCC(N)=O)C(=O)N1Cc2ccccc2C[C@H]1C(=O)N1[C@@H](C(=O)N[C@@H](CCCNC(=N)N)C(=O)N2CCC[C@H]2C(=O)N[C@@H](CO)C(=O)O)C[C@H]2CCCC[C@H]21 [Tat1_8-9TOD] | 0.122 | 0.12 | IC50 lower than for counterpart with d-Tic,l-Oic unit (Tat1_8-9TO) ([1]; ChT-L activity): about 30%; EC50 ([2]; Repetition 1): 8320 ± 0.0423 nM; EC50 ([2]; Repetition 2): 7550 ± 0.0388 nM; EC50 ([2]; Repetition 3): 8560 ± 0.0538 nM; Kd [2, 7]: 8.14 µM |
| N=C(N)NCCC[C@H](NC(=O)CN)C(=O)N[C@@H](CCCCN)C(=O)N[C@@H](CCCCN)C(=O)N[C@@H](CCCNC(=N)N)C(=O)N[C@@H](CCCNC(=N)N)C(=O)N[C@@H](CCC(N)=O)C(=O)N1Cc2ccccc2C[C@@H]1C(=O)N1[C@H](C(=O)N[C@@H](CCCNC(=N)N)C(=O)N2CCC[C@H]2C(=O)N[C@@H](CO)C(=O)O)C[C@@H]2CCCC[C@@H]21 [Tat1_8-9TO] | 0.17 | 0.17 | EC50 ([2]; Repetition 1): 8880 ± 0.0559 nM; EC50 ([2]; Repetition 2): 10800 ± 0.0559 nM; EC50 ([2]; Repetition 3): 11500 ± 0.0559 nM; Kd [2, 7]: 10.4 µM |
| GRKKRAAARRPS [Tat1_A6-8] | 0.342 | 0.34 | – |
